This experiment concerns the target T1, human heart chymase (Homo sapiens, UniProt P23946).
T1 sequence (P23946 22-247): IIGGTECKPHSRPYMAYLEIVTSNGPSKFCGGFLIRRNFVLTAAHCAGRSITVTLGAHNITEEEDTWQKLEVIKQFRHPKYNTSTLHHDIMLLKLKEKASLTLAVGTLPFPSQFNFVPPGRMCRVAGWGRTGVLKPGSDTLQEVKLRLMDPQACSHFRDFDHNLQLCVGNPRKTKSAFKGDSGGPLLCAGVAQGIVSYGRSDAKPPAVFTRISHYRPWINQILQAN
In words: Inhibitory activity on amidase activity of human heart chymase. Type of experiment: biochemical. The note with it: 5 nM chymase; substrate succinyl-alanyl-alanyl-prolyl-phenylalanine-p-nitroanilide 2.5 mM; Tris-HCl (100 mM)-KCl (2 M), pH 7.5. The method, then: The effectiveness of the inhibitory activity of compound (I) and compound (XXVI) of the present invention was evaluated based on the inhibitory activity on amidase activity of human heart chymase, which was determined as in the following.
The inhibitory activity was quantitatively determined through variation in fractional residual activity of the enzyme caused by the inventive compound in defined serial concentration (<×1, <×10, <×100-fold equivalents) relative to 5 nM chymase in the presence of synthetic substrate, succinyl-alanyl-alanyl-prolyl-phenylalanine-p-nitroanilide (final concentration 2.5 mM). The inhibitory effect was analyzed by least square regression of Easson-Stedman plot (Proc. Roy. Soc. B. 1936, 121, p. 141) utilizing bimolecular equilibrium reaction linearization formula. The inhibitory activity was evaluated by the apparent inhibitory constant (Kiapp) obtained by this analysis and inhibitory constant (Ki) calculated from final substrate concentration in the reaction mixture and Km values separately determined. With regard to the quantlitative determination of initial rate of the enzyme reaction, the amount of p-nitroaniline produced by hydrolysis of the substrate was spectrophotometrically detected in terms of an increased absorbance which was obtained by subtracting absorbance at 650 nm wavelength from the absorbance at 405 nm. The chymase inhibitory activity of the compound of the present invention was calculated as ratio of residual activity in the presence of inhibitor relative to enzyme activity in the absence of inhibitor, and incorporation of the determination values was completed at a level less than initial rate guarantee absorbance at a concentration of the substrate used for the enzyme, after which analysis was performed.
The reaction mixture consisted of a buffer (pH 7.5, 140 μl) of Tris-HCl (100 mM) - KCl (2 M), the inventive compound dissolved in 20 μl of 10% dimethyl sulfoxide (DMSO), substrate dissolved in 20 μl of DMSO, and 20 μl of chymase, thus amounting to 200 μl in total.
Starting with the absorbance immediately after addition of the enzyme, increases in absorbance were recorded as a progressive curve taken precisely at equal time intervals.
From the above data, the difference between absorbances at completion of the reaction and immediately after addition was used to quantitatively determine the residual activity of the sample added with the inhibitor relative to a control wherein the inhibitor was not added. Alternatively, reaction rates of the control and the sample added with the inhibitor were calculated for certain time period (≥20 min) with successive shift (every 10 to 30 minutes) of the period, and the residual activity ratio was quantitatively determined and analyzed from the respective reaction rates averaged through the entire reaction time.
`COC(=O)c1ccc2oc(C(=O)C(Cc3ccccc3)NC(=O)Cn3c(-c4ccc(F)cc4)ncc(NC(=O)OCc4ccccc4)c3=O)nc2c1` (stereo not shown) [Example 3, 2-[5-benzyloxycarbonylamino-2-(4-fluorophenyl)-6-oxo-1,6-dihydro-1-pyrimidinyl]-N-[1-[[5-(methoxycarbonyl)benzoxazol-2-yl]carbonyl]-2-phenylethyl]acetamide]: the Ki was determined as 1300 nM.

Consider `Nc1cnc(-c2ccc(F)cc2)n(CC(=O)NC(Cc2ccccc2)C(=O)c2nc3cc(C(=O)O)ccc3o2)c1=O` (stereo not shown) [Example 5, 2-[5-amino-2-(4-fluorophenyl)-6-oxo-1,6-dihydro-1-pyrimidinyl]-N-[1-[(5-carboxylbenzoxazol-2-yl)carbonyl]-2-phenylethyl]acetamide], for which the Ki was 76 nM.

The compound `COC(=O)c1ccc2nc(C(=O)C(Cc3ccccc3)NC(=O)Cn3c(-c4ccc(F)cc4)ncc(N)c3=O)oc2c1` (stereo not shown) [Example 7, 2-[5-amino-2-(4-fluorophenyl)-6-oxo-1,6-dihydro-1-pyrimidinyl]-N-[1-[[6-(methoxycarbonyl)benzoxazol-2-yl]carbonyl]-2-phenylethyl]acetamide] yielded a Ki of 56 nM.

For the compound `O=CC(Cc1ccccc1)NC(=O)Cn1c(-c2ccc(F)cc2)ncc(NC(=O)OCc2ccccc2)c1=O` (stereo not shown) [Example 9, 2-[5-benzyloxycarbonylamino-2-(4-fluorophenyl)-6-oxo-1,6-dihydro-1-pyrimidinyl]-N-(1-formyl-2-phenylethyl)acetamide], affinity was put at a Ki of 1840 nM.

In turn, `Nc1ccc2oc(C(=O)C(Cc3ccccc3)NC(=O)Cn3c(-c4ccc(F)cc4)ncc(N)c3=O)nc2c1` (stereo not shown) [Example 15, 2-[5-amino-2-(4-fluorophenyl)-6-oxo-1,6-dihydro-1-pyrimidinyl]-N-[1-[(5-aminobenzoxazol-2-yl)carbonyl]-2-phenylethyl]acetamide] returned an inhibition constant (Ki) of 183 nM.

In the case of `Nc1cnc(-c2ccc(F)cc2)n(CC(=O)NC(Cc2ccccc2)C(=O)c2nc3cc(NS(=O)(=O)C(F)(F)F)ccc3o2)c1=O` (stereo not shown) [Example 17, 2-[5-amino-2-(4-fluorophenyl)-6-oxo-1,6-dihydro-1-pyrimidinyl]-N-[1-[[5-(trifluoromethanesulfonylamino)benzoxazol-2-yl]carbonyl]-2-phenylethyl]acetamide], affinity was put at a Ki of 130 nM.

`O=C(Cn1c(-c2ccc(F)cc2)ncc(NC(=O)OCc2ccccc2)c1=O)NC(Cc1ccccc1)C(=O)c1nccs1` (stereo not shown) [Example 21, 2-[5-benzyloxycarbonylamino-2-(4-fluorophenyl)-6-oxo-1,6-dihydro-1-pyrimidinyl]-N-[2-phenyl-1-[(2-thiazolyl)carbonyl]ethyl]acetamide] had a Ki of 111 nM.

Regarding `O=C(Cn1c(-c2ccc(F)cc2)ncc(NC(=O)OCc2ccccc2)c1=O)NC(Cc1ccccc1)C(=O)C1=NCCO1` (stereo not shown) [Example 23, 2-[5-benzyloxycarbonylamino-2-(4-fluorophenyl)-6-oxo-1,6-dihydro-1-pyrimidinyl]-N-[1-[(2-oxazolinyl)carbonyl]-2-phenylethyl]acetamide], the inhibitory constant (Ki) amounted to 48 nM.

Compound `Nc1cnc(-c2ccc(F)cc2)n(CC(=O)NC(Cc2ccccc2)C(=O)c2nc3cc(F)ccc3o2)c1=O` (stereo not shown) [Example 26, 2-[5-amino-2-(4-fluorophenyl)-6-oxo-1,6-dihydro-1-pyrimidinyl]-N-[1-[(5-fluorobenzoxazol-2-yl)carbonyl]-2-phenylethyl]acetamide] returned a Ki of 93 nM.

The compound `CN(C)C(=O)c1ccc2oc(C(=O)C(Cc3ccccc3)NC(=O)Cn3c(-c4ccc(F)cc4)ncc(NC(=O)OCc4ccccc4)c3=O)nc2c1` (stereo not shown) [Example 31, 2-[5-benzyloxycarbonylamino-2-(4-fluorophenyl)-6-oxo-1,6-dihydro-1-pyrimidinyl]-N-[1-[[5-(dimethylaminocarbonyl)benzoxazol-2yl)carbonyl]-2-phenylethyl]acetamide] came in with a Ki of 16 nM.

Compound `Nc1cnc(-c2ccc(F)cc2)n(CC(=O)NC(Cc2ccc(F)cc2)C(=O)c2nc3ccccc3o2)c1=O` (stereo not shown) [Example 40, 2-[5-amino-2-(4-fluorophenyl)-6-oxo-1,6-dihydro-1-pyrimidinyl]-N-[1-[(benzoxazol-2-yl)carbonyl]-2-(4-fluorophenyl)ethyl]acetamide] registered a Ki of 990 nM.

Take `CCOC(=O)c1ccc2oc(C(=O)C(Cc3ccccc3)NC(=O)Cn3c(-c4ccccc4)ncc(N)c3=O)nc2c1` (stereo not shown) [Example 44]: the affinity, expressed as Ki, was 2 nM.

`O=C(Cn1c(-c2ccccc2)ncc(NC(=O)OCc2ccccc2)c1=O)NC(Cc1ccccc1)C(=O)c1nc2ncccc2o1` (stereo not shown) [Example 45, 2-(5-benzyloxycarbonylamino-6-oxo-2-phenyl-1,6-dihydro-1-pyrimidinyl)-N-[1-[(oxazolo[4,5-b]pyridin-2-yl)carbonyl]-2-phenylethyl]acetamide] showed a Ki of 24 nM.

`Cc1cccc(-c2ncc(NC(=O)OCc3ccccc3)c(=O)n2CC(=O)NC(Cc2ccccc2)C(=O)c2nc3cc(C(N)=O)ccc3o2)c1` (stereo not shown) [Example 53, 2-[5-benzyloxycarbonylamino-6-oxo-2-(m-tolyl)-1,6-dihydro-1-pyrimidinyl]-N-[1-[(5-carbamoylbenzoxazol-2-yl)carbonyl]-2-phenylethyl]acetamide] displayed a Ki of 66 nM.

`CCNC(=O)c1ccc2oc(C(=O)C(Cc3ccccc3)NC(=O)Cn3c(-c4cccc(C)c4)ncc(NC(=O)OCc4ccccc4)c3=O)nc2c1` (stereo not shown) [Example 55, 2-[5-benzyloxycarbonylamino-6-oxo-2-(m-tolyl)-1,6-dihydro-1-pyrimidinyl]-N-[1-[[5-(ethylaminocarbonyl)benzoxazol-2-yl]carbonyl]-2-phenylethyl]acetamid] returned a Ki of 59 nM.

Consider `CCN(CC)C(=O)c1ccc2oc(C(=O)C(Cc3ccccc3)NC(=O)Cn3c(-c4cccc(C)c4)ncc(N)c3=O)nc2c1` (stereo not shown) [Example 58, 2-[5-amino-6-oxo-2-(m-tolyl)-1,6-dihydro-1-pyrimidinyl]-N-[1-[[5-(diethylaminocarbonyl)benzoxazol-2-yl]carbonyl]-2-phenylethyl]acetamide], for which the Ki was 12 nM.

In the case of `CCOC(=O)c1ccc2oc(C(=O)C(Cc3ccccc3)NC(=O)Cn3c(-c4cccnc4)ncc(N)c3=O)nc2c1` (stereo not shown) [Example 64, 2-[5-amino-6-oxo-2-(3-pyridyl)-1,6-dihydro-1-pyrimidinyl]-N-[1-[[5-(ethoxycarbonyl)benzoxazol-2yl]carbonyl]-2-phenylethyl]acetamide], the Ki came out at 45 nM.

As to `Nc1cnc(-c2cccnc2)n(CC(=O)NC(Cc2ccccc2)C(=O)c2nc3ncccc3o2)c1=O` (stereo not shown) [Example 72, 2-[5-amino-6-oxo-2-(3-pyridyl)-1,6-dihydro-1-pyrimidinyl]-N-[1-[(oxazolo[4,5-b]pyridin-2-yl)carbonyl]-2-phenylethyl]acetamide], the Ki came out at 74 nM.

The compound `COC(=O)c1ccc2oc(C(=O)C(Cc3ccccc3)NC(=O)Cn3c(-c4ccncc4)ncc(NC(=O)OCc4ccccc4)c3=O)nc2c1` (stereo not shown) [Example 73, 2-[5-benzyloxycarbonylamino-6-oxo-2-(4-pyridyl)-1,6-dihydro-1-pyrimidinyl]-N-[1-[[5-(methoxycarbonyl)benzoxazol-2-yl]carbonyl]-2-phenylethyl]acetamide] registered an inhibition constant Ki of 59 nM.

`COC(=O)c1ccc2oc(C(=O)C(Cc3ccccc3)NC(=O)Cn3c(-c4cccc([N+](=O)[O-])c4)ncc(N)c3=O)nc2c1` (stereo not shown) [Example 80, 2-[5-amino-2-(3-nitrophenyl)-6-oxo-1,6-dihydro-1-pyrimidinyl]-N-[1-[[5-(methoxycarbonyl)benzoxazol-2-yl]carbonyl]-2-phenylethyl]acetamide] displayed an inhibitory constant (Ki) of 42 nM.

In the case of `COC(=O)c1ccc2oc(C(=O)C(Cc3ccccc3)NC(=O)Cn3c(-c4cccc(OC)c4)ncc(N)c3=O)nc2c1` (stereo not shown) [Example 88, 2-[5-amino-2-(3-methoxyphenyl)-6-oxo-1,6-dihydro-1-pyrimidinyl]-N-[1-[[5-(methoxycarbonyl)benzoxazol-2-yl]carbonyl]-2-phenylethyl]acetamide], the Ki amounted to 5 nM.

`COC(=O)c1ccc2oc(C(=O)C(Cc3ccccc3)NC(=O)Cn3c(-c4cccc(N)c4)ncc(N)c3=O)nc2c1` (stereo not shown) [Example 93, 2-[5-amino-2-(3-aminophenyl)-6-oxo-1,6-dihydro-1-pyrimidinyl]-N-[1-[[5-(methoxycarbonyl)benzoxazol-2-yl]carbonyl]-2-phenylethyl]acetamide] returned a Ki of 6 nM.

What is called Ki is a dissociation constant, usually derived from enzyme kinetics or from competition with a known ligand.

The values are drawn from US6080738A, “Heterocyclic amide compounds and medicinal uses thereof” (Yoshitomi Pharmaceuticals Industries, Ltd., priority 1996, dated 2000).
